# Test system: control human primary myoblasts
# Assay: Expression microarray of primary myoblasts transduced with lentivirus carrying DUX4-fl, DUX4-s or GFP
# Description: Primary human myoblasts were collected and cultured as previously described (Snider et al., 2010). Primary myoblasts were maintained at or below 70% confluency for proliferation. For differentiation, cells were allowed to reach 95-100% confluency in growth medium. Once confluency was reached, the cells were changed to differentiation medium (F10 media supplemented with 1% horse serum, 10 μg/mL insulin, and 10 μg/mL transferrin, penicillin/streptomycin) and maintained for 4 days. Human RD cells were grown in DMEM in 10% bovine calf serum (Hyclone) and penicillin/streptomycin. The primary myoblasts were transduced with lentivirus carrying DUX-fl, DUX4- or GFP (MOI=15).
# Expression microarrays were performed on the transduced cells at 24 hours after transduction as follows. […] Samples were analyzed by Illumina Human Whole Genome microarrays. Probe intensities were corrected, normalized, and summarized by the Lumi package of Bioconductor (Du et al., 2008). Differentially expressed genes were identified by the LIMMA package of Bioconductor (Wettenhall and Smyth, 2004). Gene set enrichment analysis (GSEA) was performed using the Bioconductor GOstats package (Falcon and Gentleman, 2007).
substance,measurement,setting,value
"DUX4-fl: full-length DUX4 protein (SEQ ID NO:110), expressed from lentiviral or pCS2 vectors or in vitro translated",LOC728450 expression fc,Refseq XM_001131473.2,2.474
same,RFNG fc,Refseq XM_001132711.1,−1.116
same,LOC732416 expression fc,Refseq XM_001133386.1,2.329
same,THOC4 expression fc,Refseq XM_001134346.1,4.035
same,PRAMEF15 expression fc,Refseq XM_001713659.1,7
same,LOC100131392 expression fc,Refseq XM_001713681.1,6.976
same,LOC100132564 expression fc,Refseq XM_001713808.1,3.588
same,LOC391769 expression fc,Refseq XM_001713901.1,8.19
same,PRAMEF13 expression fc,Refseq XM_001713933.1,7.422
same,PRAMEF11 expression fc,Refseq XM_001714028.1,5.94
same,fc of LOC285296 (expression array),Refseq XM_001714301.1,−1.042
same,LOC100133588 expression fc,Refseq XM_001714755.1,2.2
same,CTGLF7 expression fc,Refseq XM_001714786.1,3.437
same,LOC100129630 expression fc,Refseq XM_001714940.1,1.871
same,LOC391763 expression fc,Refseq XM_001715080.1,1.963
same,LOC642446 expression fc,Refseq XM_001717781.1,3.101
same,LOC100133446 expression fc,Refseq XM_001717965.1,4.635
same,LOC100129165 fc,Refseq XM_001718314.1,−1.161
same,LOC643336 expression fc,Refseq XM_001718563.1,1.934
same,LOC100129053 expression fc,Refseq XM_001718702.1,2.724
same,LOC100130652 expression fc,Refseq XM_001719052.1,3.33
same,RFPL4A expression fc,Refseq XM_001719234.1,4.348
same,LOC728809 fc,Refseq XM_001719546.1,−1.14
same,LOC100134199 expression fc,Refseq XM_001719549.1,8.048
same,PNMA6B expression fc,Refseq XM_001721351.1,3.603
same,LOC100133984 expression fc,Refseq XM_001723079.1,6.204
same,LOC649330 expression fc,Refseq XM_001723218.1,3.101
same,LOC100128202 expression fc,Refseq XM_001723719.1,3.711
same,LOC100130311 expression fc,Refseq XM_001724111.1,2.912
same,LOC100131539 expression fc,Refseq XM_001724873.1,4.629
same,LOC100134006 expression fc,Refseq XM_001725030.1,7.087
same,LOC730167 expression fc,Refseq XM_001726158.1,3.656
same,LOC100129681 expression fc,"Refseq XM_001726834.1, cultured human skeletal muscle",−4.075
same,LOC651709 expression fc,Refseq XM_001732813.1,2.304
same,LOC727828 expression fc,Refseq XR_015137.1,3.054
same,LOC728060 fc,Refseq XR_015272.2,−1.095
same,LOC732393 expression fc,Refseq XR_015873.1,4.637
same,MGC40489 expression fc,Refseq XR_016048.1,2.542
same,LOC643263 expression fc,Refseq XR_016355.1,8.345
same,LOC441081 expression fc,Refseq XR_017029.1,3.764
same,LOC647366 expression fc,Refseq XR_018122.1,3.783
same,LOC440041 expression fc,Refseq XR_018122.2,3.895
same,LOC647827 expression fc,Refseq XR_018213.1,4.053
same,LOC399988 expression fc,Refseq XR_018287.2,1.966
same,LOC650215 fc,Refseq XR_018889.1,−1.139
same,fc of RBMS2P (expression array),Refseq XR_019556.2,−0.4507
same,LOC642148 expression fc,Refseq XR_019607.1,6.851
same,LOC650236 expression fc,Refseq XR_036872.1,2.915
same,LOC100134322 expression fc,Refseq XR_037416.1,2.488
same,LOC730974 expression fc,Refseq XR_037751.1,7.715
same,LOC643445 expression fc,Refseq XR_038080.1,8.25
same,LOC729516 expression fc,Refseq XR_038445.1,5.955
same,LOC340970 expression fc,Refseq XR_038494.1,8.316
same,LOC645381 expression fc,Refseq XR_038557.1,2.089
same,LOC728429 expression fc,Refseq XR_038921.1,2.178
same,LOC645638 fc,Refseq XR_040455.1,−1.128
same,LOC400464 expression fc,Refseq XR_041115.1,2.831
same,TRIM53 expression fc,Refseq XR_041244.1,4.778
same,LOC729009 expression fc,"Refseq XR_042330.1, cultured human skeletal muscle",−2.654
same,number of genes increased 8-fold or more,Table 1,164 genes
same,number of genes increased 16-fold or more,Table 1,107 genes
same,ABCC3 expression fc,cultured human skeletal muscle,−1.491
same,ADM expression fc,cultured human skeletal muscle,−1.619
same,AGTRAP expression fc,cultured human skeletal muscle,−1.467
same,AHNAK expression fc,cultured human skeletal muscle,−1.441
same,ANGPTL2 expression fc,cultured human skeletal muscle,−1.893
same,ANKFY1 expression fc,cultured human skeletal muscle,−1.396
same,APOL3 expression fc,cultured human skeletal muscle,−1.548
same,ARHGEF19 expression fc,cultured human skeletal muscle,−1.4
same,ARID3A expression fc,cultured human skeletal muscle,−1.573
same,ASNS expression fc,cultured human skeletal muscle,−1.454
same,ATF5 expression fc,cultured human skeletal muscle,−1.826
same,ATL3 expression fc,cultured human skeletal muscle,−1.455
same,BHLHB2 expression fc,cultured human skeletal muscle,−1.43
same,BTG2 expression fc,cultured human skeletal muscle,−1.573
same,BTN3A2 expression fc,cultured human skeletal muscle,−1.759
same,BTN3A3 expression fc,cultured human skeletal muscle,−1.62
same,C1RL expression fc,cultured human skeletal muscle,−1.627
same,C4orf18 expression fc,cultured human skeletal muscle,−1.781
same,C8orf13 expression fc,cultured human skeletal muscle,−1.412
same,C14orf4 expression fc,cultured human skeletal muscle,−1.476
same,C18orf56 expression fc,cultured human skeletal muscle,−1.619
same,CA9 expression fc,cultured human skeletal muscle,−1.526
same,CABC1 expression fc,cultured human skeletal muscle,−1.494
same,CABYR expression fc,cultured human skeletal muscle,−1.758
same,CCDC8 expression fc,cultured human skeletal muscle,−1.453
same,CEBPD expression fc,cultured human skeletal muscle,−1.521
same,CLDN15 expression fc,cultured human skeletal muscle,−1.554
same,CNTNAP1 expression fc,cultured human skeletal muscle,−1.744
same,COL8A1 expression fc,cultured human skeletal muscle,−1.527
same,CRISPLD2 expression fc,cultured human skeletal muscle,−1.752
same,CSF3 expression fc,cultured human skeletal muscle,−1.626
same,CYGB expression fc,cultured human skeletal muscle,−1.398
same,CYP26B1 expression fc,cultured human skeletal muscle,−1.461
same,CYP27A1 expression fc,cultured human skeletal muscle,−1.6
same,DAB2 expression fc,cultured human skeletal muscle,−1.807
same,DCN expression fc,cultured human skeletal muscle,−1.673
same,DDB2 expression fc,cultured human skeletal muscle,−1.408
same,DDIT4 expression fc,cultured human skeletal muscle,−1.522
same,DDX60L expression fc,cultured human skeletal muscle,−1.638
same,DKFZp451A211 expression fc,cultured human skeletal muscle,−1.833
same,DNAJB2 expression fc,cultured human skeletal muscle,−1.488
same,DUSP10 expression fc,cultured human skeletal muscle,−1.39
same,ERAP2 expression fc,cultured human skeletal muscle,−1.605
same,ESPNL expression fc,cultured human skeletal muscle,−1.567
same,FADS1 expression fc,cultured human skeletal muscle,−1.845
same,FAM110B expression fc,cultured human skeletal muscle,−1.675
same,FAM175A expression fc,cultured human skeletal muscle,−1.54
same,FHL2 expression fc,cultured human skeletal muscle,−1.58
same,FILIP1L expression fc,cultured human skeletal muscle,−1.784
same,FKBP5 expression fc,cultured human skeletal muscle,−1.758
same,FOXQ1 expression fc,cultured human skeletal muscle,−1.432
same,FPR1 expression fc,cultured human skeletal muscle,−1.603
same,FST expression fc,cultured human skeletal muscle,−1.812
same,FUCA1 expression fc,cultured human skeletal muscle,−1.615
same,GALK1 expression fc,cultured human skeletal muscle,−1.411
same,GALNTL2 expression fc,cultured human skeletal muscle,−1.834
same,GAS1 expression fc,cultured human skeletal muscle,−1.732
same,GBP4 expression fc,cultured human skeletal muscle,−1.478
same,GFPT2 expression fc,cultured human skeletal muscle,−1.612
same,GPX8 expression fc,cultured human skeletal muscle,−1.606
same,GRINA expression fc,cultured human skeletal muscle,−1.427
same,GSDMD expression fc,cultured human skeletal muscle,−1.763
same,HAS2 expression fc,cultured human skeletal muscle,−1.679
same,HCG4 expression fc,cultured human skeletal muscle,−1.651
same,HES4 expression fc,cultured human skeletal muscle,−1.751
same,HLA-C expression fc,cultured human skeletal muscle,−1.788
same,HLA-H expression fc,cultured human skeletal muscle,−1.798
same,HOXC6 expression fc,cultured human skeletal muscle,−1.539
same,ID3 expression fc,cultured human skeletal muscle,−1.627
same,IDH3B expression fc,cultured human skeletal muscle,−1.542
same,IFIT5 expression fc,cultured human skeletal muscle,−1.645
same,IFITM2 expression fc,cultured human skeletal muscle,−1.713
same,IGFBP5 expression fc,cultured human skeletal muscle,−1.441
same,IHPK3 expression fc,cultured human skeletal muscle,−1.859
same,IL32 expression fc,cultured human skeletal muscle,−1.681
same,IMPA2 expression fc,cultured human skeletal muscle,−1.437
same,IRAK2 expression fc,cultured human skeletal muscle,−1.447
same,IRAK3 expression fc,cultured human skeletal muscle,−1.5
same,ISCU expression fc,cultured human skeletal muscle,−1.547
same,ITPRIP expression fc,cultured human skeletal muscle,−1.763
same,KIAA1618 expression fc,cultured human skeletal muscle,−1.843
same,KLF6 expression fc,cultured human skeletal muscle,−1.659
same,KRT17 expression fc,cultured human skeletal muscle,−1.626
same,LAP3 expression fc,cultured human skeletal muscle,−1.552
same,LIMA1 expression fc,cultured human skeletal muscle,−1.463
same,LOC387763 expression fc,cultured human skeletal muscle,−1.46
same,LOC389386 expression fc,cultured human skeletal muscle,−1.521
same,LOC392437 expression fc,cultured human skeletal muscle,−1.674
same,LOC653879 expression fc,cultured human skeletal muscle,−1.416
same,LOC728431 expression fc,cultured human skeletal muscle,−1.44
same,MAMDC2 expression fc,cultured human skeletal muscle,−1.858
same,MAOA expression fc,cultured human skeletal muscle,−1.71
same,MCEE expression fc,cultured human skeletal muscle,−1.398
same,MGC16121 expression fc,cultured human skeletal muscle,−1.828
same,MIOS expression fc,cultured human skeletal muscle,−1.485
same,MLPH expression fc,cultured human skeletal muscle,−1.788
same,MMP3 expression fc,cultured human skeletal muscle,−1.509
same,MOCOS expression fc,cultured human skeletal muscle,−1.716
same,MOV10 expression fc,cultured human skeletal muscle,−1.658
same,MSC expression fc,cultured human skeletal muscle,−1.605
same,MSI2 expression fc,cultured human skeletal muscle,−1.763

# Reference: patent US20140242093A1, “METHODS AND COMPOSITIONS FOR MODULATING THE INNATE IMMUNE RESPONSE AND/OR MYOGENESIS IN A MAMMALIAN SUBJECT” (FRED HUTCHINSON CANCER RESEARCH CENTER, priority 2011, published 2014)
